In patent publication US20240269238A1, “Therapeutic Regimens and Methods for Reducing Body Weight in a Subject with Fatty Liver Disease using a GLP-1R and GCGR Agonist” (Spitfire Pharma LLC, priority 2022, published 2024) one finds weight loss and placebo-adjusted weight loss data, which are given here for one compound.

Molecules are shown by their SMILES.

A short description of the test: Phase 1 12-week NAFLD study (Example 1): body weight loss. The following applies: for weight loss: week 12; for placebo-adjusted weight loss: 12 weeks. The class given is in vivo, human. An excerpt: Provided herein is disclosure of a Phase 1, multicenter, randomized, double-blind, placebo-controlled study to assess the effects of Pemvidutide (also termed herein as ALT-801), the safety of Pemvidutide and effects on hepatic fat fraction, anthropometric parameters, lipid metabolism, inflammatory markers and fibrosis markers in diabetic and non-diabetic (type 2 diabetes) overweight and obese (BMI 28.0 kg/m^2) subjects with NAFLD. This study was designed to assess changes in hepatic fat fraction by MRI-PDFF (magnetic resonance imaging-proton density fat fraction) in diabetic and non-diabetic overweight and obese subjects with NAFLD after 12 weeks of ALT-801 treatment. The trial was conducted without adjunctive diet and exercise interventions. The study assessed changes in body weight, lipid metabolism, metabolic markers, and inflammatory markers and safety and tolerability of ALT-801 after 12 weeks of treatment. Subjects were stratified for the presence or absence of diabetes at baseline. Fibroscan and cT1 assessments evaluated changes in liver inflammatory and fibrotic activity at the end of 12 weeks of treatment.
Overweight and obese volunteers with BMI ≥28 kg/m^2 were studied because this is the typical population of individuals with NAFLD, and these subjects are able to better tolerate the predicted Pharmacodynamics (PD) effect of weight loss and could even benefit from treatment. A hepatic fat fraction of 10% has been typical for the evaluation of hepatic fat fraction in subjects with NAFLD. In other words, individuals with a liver fat fraction of 10% or greater are typically diagnosed with NAFLD. Diabetic subjects that require insulin, sulfonylureas or DDP-4 inhibitors for control of diabetes were excluded in this study. Exclusions were instituted that might otherwise affect an accurate assessment of the effects of ALT-801 on safety or PD. The BMI upper limit is set to 45 kg/m^2 as subjects over this BMI are no likely to fit into the MRI scanner.
The study, described in this example, was carried out in 94 subjects overweight and obese (body mass index [BMI] ≥28.0 kg/m^2) Type 2 diabetic and non-diabetic subjects with nonalcoholic fatty liver disease (NAFLD) over about 4.5 months, including up to a 35-day screening period, and 85-day treatment period and a 25-day follow-up period, with treatment with ALT-801 (a composition comprising SEQ ID NO.: 1, “study medication”) or placebo administered by subcutaneous (SC) injection once weekly for up to twelve (12) doses.
The safety objective of this study was to assess the safety and tolerability of ALT-801 in 18-65 years old subjects with NAFLD (NAFLD without significant fibrosis, defined as FibroScan® controlled attenuation parameter (CAP) ≥280 dB/m and liver stiffness measurement (LSM)<10 kPa (i.e., indicating the absence of significant fibrosis), magnetic resonance imaging derived proton density fat fraction (MRI-PDFF) ≥10%), hemoglobin Alc (HbAlc) of less than 9.5%, and alanine aminotransferase (ALT) or aspartate aminotransferase (AST) values of ≤[…]. The pharmacodynamic (PD) objectives of this study were to evaluate the effects of ALT-801 on hepatic fat fraction, anthropometric parameters, lipid metabolism, metabolic markers, inflammatory markers, fibrosis markers, and lipotoxicity markers. The pharmacokinetic (PK) objectives of this study were to evaluate the effects of ALT-801 and metformin exposure (drug interactions) on the subjects (e.g., ALT-801 and metformin concentrations in blood over time).
After providing informed consent, subjects underwent a screening period of up to 35 days. Subjects were instructed on how to maintain their normal diets, alcohol consumption and physical activities and not to start any new diets, supplements, or exercise programs at any time while participating in the study. […]

For `CC[C@H](C)[C@H](NC(=O)[C@H](Cc1ccccc1)NC(=O)[C@H](CCC(=O)O)NC(=O)[C@@H]1CCCCNC(=O)CC[C@H](NC(=O)[C@H](CC(=O)O)NC(=O)[C@H](CC(C)C)NC(=O)[C@H](Cc2ccc(O)cc2)NC(=O)[C@H](CCCCN)NC(=O)[C@H](CO)NC(=O)[C@H](Cc2ccc(O)cc2)NC(=O)[C@H](CC(=O)O)NC(=O)[C@H](CO)NC(=O)[C@@H](NC(=O)[C@H](Cc2ccccc2)NC(=O)[C@@H](NC(=O)CNC(=O)[C@H](CCC(N)=O)NC(=O)C(C)(C)NC(=O)[C@@H](N)Cc2c[nH]cn2)[C@@H](C)O)[C@H](C)O)C(=O)N[C@@H](CCCCNC(=O)C2O[C@@H](OCCCCCCCCCCCCCCCCCC(=O)O)C(O)C(O)[C@@H]2O)C(=O)N[C@@H](C)C(=O)N[C@@H](C)C(=O)N1)C(=O)N[C@@H](CCC(N)=O)C(=O)N[C@@H](Cc1c[nH]c2ccccc12)C(=O)N[C@@H](CC(C)C)C(=O)N[C@@H](CC(C)C)C(=O)N[C@@H](CCC(N)=O)C(=O)N[C@H](C(N)=O)[C@@H](C)O` (some centres unmarked) [ALT-801, Pemvidutide], the weight loss worked out at 3.4% (all subjects, 1.2 mg); 4.3% (all subjects, 1.8 mg); 3.7% (all subjects, 2.4 mg); 3.3% (diabetic subjects, 1.2 mg); 3.8% (diabetic subjects, 1.8 mg); 4.4% (diabetic subjects, 2.4 mg). Besides, the weight loss by setting is: (non-diabetic subjects, 1.2 mg) 3.4%; (non-diabetic subjects, 1.8 mg) 4.9%; (non-diabetic subjects, 2.4 mg) 3.5%. The placebo-adjusted weight loss (diabetic subjects) amounted to 4.5% and the placebo-adjusted weight loss (non-diabetic subjects) was determined as 4.7%.
